Experimental findings from ChEMBL document CHEMBL1125373, “Systemic analgesic activity and delta-opioid selectivity in [2,6-dimethyl-Tyr1,D-Pen2,D-Pen5]enkephalin” (J Med Chem, 1992) are described below.

What all share (format): functional
For test [1], the species on record is Mus musculus. Description: In Vitro evaluation for the potency for inhibiting the contraction of the electrically stimulated isolated mouse vas deferens.
Test [2] relates to Mus musculus. Description: In vivo antinociceptive activity in mice by using hot plate test after intracerebroventricular administration. In general terms: Hot-plate and tail-flick tests time the reaction to a heat stimulus.
Test [3] has as its system Mus musculus. As to the kind of experiment: In vivo antinociceptive activity in mice by using hot plate test after subcutaneous administration. The following applies: sc.
Test [4] concerns Mus musculus. Description: In vivo antinociceptive activity in mice by using PBQ writing test after subcutaneous administration. The following applies: sc.

What is called EC50 is the concentration that produces a half-maximal response. The low end stands for a more potent agent, the high end for a less potent agent. In the test filed under Mus musculus [1], `CC1(C)SSC(C)(C)[C@@H](NC(=O)[C@@H](N)Cc2ccc(O)cc2)C(=O)NCC(=O)N[C@@H](Cc2ccccc2)C(=O)N[C@H]1C(=O)O` showed an EC50 of 12.9 nM. For the same compound, the ED50 in the test on Mus musculus [2] was 1.4 µg.
In the test filed under Mus musculus [1], `Cc1cc(O)cc(C)c1C[C@H](N)C(=O)N[C@H]1C(=O)NCC(=O)N[C@@H](Cc2ccccc2)C(=O)N[C@@H](C(=O)O)C(C)(C)SSC1(C)C` [listing 1 of 2 here] returned an EC50 of 0.15 nM.
Take `CN1CC[C@]23c4c5ccc(O)c4O[C@H]2[C@@H](O)C=C[C@H]3[C@H]1C5` [MORPHINE]: the results for the ED50 in the test on Mus musculus [3], in the test on Mus musculus [2] and in the test on Mus musculus [4] were 3.2 mg/kg, 0.6 µg and 0.2 mg/kg, respectively.
Turning to `Cc1cc(O)cc(C)c1C[C@H](N)C(=O)N[C@H]1C(=O)NCC(=O)N[C@@H](Cc2ccccc2)C(=O)N[C@@H](C(=O)O)C(C)(C)SSC1(C)C` [listing 2 of 2 here], the ED50 in the test on Mus musculus [3] is 33 mg/kg; in the test on Mus musculus [2], 0.2 µg; in the test with Mus musculus [4], 2.6 mg/kg.
